Laboratory results: US6982348B2, “Aminoethanol derivatives” (Takeda Pharmaceutical Company Limited, priority 2001, dated 2006)

Row | Compound | melting point [°C]
1 | O=C(N[C@H](Cc1ccc(C(F)(F)F)cc1)[C@@H](O)c1ccc(F)cc1)c1cc([N+](=O)[O-])cc2ccccc12 (racemic) [Example 102, N-[(1RS,2SR)-2-(4-fluorophenyl)-2-hydroxy-1-[4-(trifluoromethyl)benzyl]ethyl]-3-nitronaphthalene-1-carboxamide] | 231 to 232
2 | C=C(c1cccc(C[C@@H](NC(=O)c2ccc(F)c3ccccc23)[C@@H](O)c2ccc(F)cc2)c1)C(F)(F)C(F)F (racemic) [Example 349, 4-fluoro-N-[(1RS,2SR)-2-(4-fluorophenyl)-2-hydroxy-1-[3-[1-(1,1,2,2-tetrafluoroethyl)vinyl]benzyl]ethyl]naphthalene-1-carboxamide] | 162 to 163
3 | CC(C)(C)C(F)(F)c1ccc(C[C@@H](NC(=O)c2ccc(F)c3ccccc23)[C@@H](O)c2cccc(Cl)c2)cc1 (racemic) [Example 379, N-{(1RS,2SR)-2-(3-chlorophenyl)-1-[4-(1,1-difluoro-2,2-dimethylpropyl)benzyl]-2-hydroxyethyl}-4-fluoro-1-naphthamide] | 104 to 106
4 | O=C(N[C@H](Cc1cccc(OC(F)(F)C(F)F)c1)[C@@H](O)c1ccc(OCCCOc2ccccc2)cc1)c1cccc2c1C=CCCC2 (racemic) [Example 247, N-{(1RS,2SR)-2-hydroxy-2-[4-(3-phenoxypropoxy)phenyl]-1-[3-(1,1,2,2-tetrafluoroethoxy)benzyl]ethyl}-6,7-dihydro-5H-benzo[a][7]annulene-1-carboxamide] | 142 to 143
5 | O=C(N[C@H](Cc1ccc(C(F)(F)F)cc1)[C@@H](O)c1ccc(F)cc1)c1cccc2c1-c1ccccc1C2=O (racemic) [Example 61, N-((1RS,2SR)-2-(4-fluorophenyl)-2-hydroxy-1-((4-(trifluoromethyl)phenyl)methyl)ethyl)-9-oxo-9H-fluorene-4-carboxamide] | 231 to 232
6 | O=C(N[C@H](Cc1ccc(C(F)(F)F)cc1)[C@@H](O)c1ccc(F)cc1)OCc1ccccc1 (racemic) [Example 114, benzyl N-[(1RS,2SR)-2-(4-fluorophenyl)-2-hydroxy-1-[4-(trifluoromethyl)benzyl]ethyl]carbamate] | 151 to 152
7 | O=C(NC(Cc1ccc(C(F)(F)F)cc1)C(O)c1ccc(F)cc1)c1ccc(F)cc1 (racemic) [Example 6, 4-fluoro-N-[2-(4-fluorophenyl)-2-hydroxy-1-[[4-(trifluoromethyl)phenyl]methyl]ethyl]benzamide] | 155 to 179
8 | O=C(N[C@H](Cc1ccccc1C(F)(F)F)[C@@H](O)c1ccc(F)cc1)c1ccc(F)c2ccccc12 (racemic) [Example 141, 4-fluoro-N-((1RS,2SR)-2-(4-fluorophenyl)-2-hydroxy-1-((2-(trifluoromethyl)phenyl)methyl)ethyl)-1-naphthalenecarboxamide] | 200 to 201
9 | COC(=O)c1ccc([C@@H](O)[C@H](Cc2cccc(OC(F)(F)C(F)F)c2)NC(=O)c2cccc3c2C=CCCC3)cc1 (racemic) [Example 309, methyl 4-[(1RS,2SR)-2-[(6,7-dihydro-5H-benzo[a]cyclohepten-1-ylcarbonyl)amino]-1-hydroxy-3-[3-(1,1,2,2-tetrafluoroethoxy)phenyl]propyl]benzoate] | 137 to 138
10 | O=C(N[C@H](Cc1ccc(C(F)(F)F)cc1)[C@@H](O)c1ccc(F)cc1)C1CCCc2ccccc21 (mixture of isomers) [Example 41, N-[(1RS,2SR)-2-(4-fluorophenyl)-2-hydroxy-1-[4-(trifluoromethyl)benzyl]ethyl]-1,2,3,4-tetrahydronaphthalene-1-carboxamide] | 205 to 214
11 | N#Cc1ccc(C(=O)N[C@H](Cc2ccc(C(F)(F)F)cc2)[C@@H](O)c2ccc(F)cc2)c2ccccc12 (racemic) [Example 54, 4-cyano-N-[(1RS,2SR)-2-(4-fluorophenyl)-2-hydroxy-1-[4-(trifluoromethyl)benzyl]ethyl]naphthalene-1-carboxamide] | 199 to 201
12 | CCOC(=O)N[C@H](Cc1cccc(OC(F)(F)C(F)F)c1)[C@@H](O)c1ccc(F)cc1 (racemic) [Example 129, ethyl N-[(1RS,2SR)-2-(4-fluorophenyl)-2-hydroxy-1-[3-(1,1,2,2-tetrafluoroethoxy)benzyl]ethyl]carbamate] | 113 to 114
13 | O=C(CCCc1ccccc1)N[C@H](Cc1ccccc1C(F)(F)F)[C@@H](O)c1ccc(F)cc1 (racemic) [Example 143, N-((1RS,2SR)-2-(4-fluorophenyl)-2-hydroxy-1-((2-(trifluoromethyl)phenyl)methyl)ethyl)-4-phenylbutyramide] | 161 to 162
14 | O=C(N[C@H](Cc1cccc(CC(F)(F)C(F)F)c1)[C@@H](O)c1ccc(F)cc1)c1cccc2c(Cl)cccc12 (racemic) [Example 340, 5-chloro-N-[(1RS,2SR)-2-(4-fluorophenyl)-2-hydroxy-1-[3-(2,2,3,3-tetrafluoropropyl)benzyl]ethyl]naphthalene-1-carboxamide] | 174 to 175
15 | O=C(N[C@H](Cc1ccc(C(F)(F)F)cc1)[C@@H](O)c1ccc(F)cc1)c1cccc2c1CCCC2 (racemic) [Example 33, N-[(1RS,2SR)-2-(4-fluorophenyl)-2-hydroxy-1-[4-(trifluoromethyl)benzyl]ethyl]-5,6,7,8-tetrahydronaphthalene-1-carboxamide] | 219 to 221
16 | CC(C)(C)COC(=O)N[C@H](Cc1ccc(C(F)(F)F)cc1)[C@@H](O)c1ccc(F)cc1 (racemic) [Example 116, neopentyl N-[(1RS,2SR)-2-(4-fluorophenyl)-2-hydroxy-1-[4-(trifluoromethyl)benzyl]ethyl]carbamate] | 112 to 113
17 | O=C(N[C@H](Cc1ccc(C(F)(F)F)cc1)[C@@H](O)c1ccc(F)cc1)c1cccc2cc(F)ccc12 (racemic) [Example 39, 6-fluoro-N-[(1RS,2SR)-2 (4-fluorophenyl)-2-hydroxy-1-[4-(trifluoromethyl)benzyl]ethyl]naphthalene-1-carboxamide] | 223 to 224
18 | O=C(O)c1ccc(COc2ccc([C@@H](O)[C@H](Cc3cccc(OC(F)(F)C(F)F)c3)NC(=O)c3cccc4c3C=CCCC4)cc2)cc1 (racemic) [Example 250, 4-[(4-{(1RS,2SR)-2-[(6,7-dihydro-5H-benzo[a][7]annulen-1-ylcarbonyl)amino]-1-hydroxy-3-[3-(1,1,2,2-tetrafluoroethoxy)phenyl]propyl}phenoxy)methyl]benzoic acid] | 190 to 191
19 | O=C(N[C@H](Cc1ccc(C(F)(F)F)cc1)[C@H](O)c1ccc(F)cc1)c1ccc(C(F)(F)F)cc1 (racemic) [Example 27, N-((1RS,2RS)-2-(4-fluorophenyl)-2-hydroxy-1-((4-(trifluoromethyl)phenyl)methyl)ethyl)-4-(trifluoromethyl)benzamide] | 162 to 163
20 | O=C(CCc1ccccc1)N[C@H](Cc1ccc(C(F)(F)F)cc1)[C@@H](O)c1ccc(F)cc1 (racemic) [Example 48, N-((1RS,2SR)-2-(4-fluorophenyl)-2-hydroxy-1-((4-(trifluoromethyl)phenyl)methyl)ethyl)-3-phenylpropanamide] | 144 to 145
21 | O=C(Nc1ccc(C(F)(F)F)cc1)N[C@H](Cc1ccc(C(F)(F)F)cc1)[C@@H](O)c1ccc(F)cc1 (racemic) [Example 119, N-((1RS,2SR)-2-(4-fluorophenyl)-2-hydroxy-1-((4-(trifluoromethyl)phenyl)methyl)ethyl)-N′-(4-(trifluoromethyl)phenyl)urea] | 160 to 161
22 | O=C(N[C@H](Cc1ccc(C(F)(F)F)cc1)[C@@H](O)c1ccc(Oc2ccccc2)cc1)c1ccc(F)c2ccccc12 (racemic) [Example 209, N-((1RS,2SR)-2-hydroxy-2-(4-phenoxyphenyl)-1-((4-(trifluoromethyl)phenyl)methyl)ethyl)-4-fluoro-1-naphthalenecarboxamide] | 205 to 210
23 | COc1ccc([C@H](O)[C@@H](Cc2ccc(C(F)(F)F)cc2)NC(=O)CCc2ccccc2)cc1 (racemic) [Example 193, N-((1RS,2SR)-2-hydroxy-2-(4-methoxyphenyl)-1-((4-(trifluoromethyl)phenyl)methyl)ethyl)-3-phenylpropanamide] | 116 to 117
24 | O=C(CCc1ccccc1)N[C@H](Cc1ccc(C(F)(F)F)cc1)[C@@H](O)c1cccc(F)c1 (racemic) [Example 178, N-((1RS,2SR)-2-(3-fluorophenyl)-2-hydroxy-1-((4-(trifluoromethyl)phenyl)methyl)ethyl)-3-phenylpropanamide] | 151 to 152
25 | O=C(NC(Cc1ccc(C(F)(F)F)cc1)C(O)c1ccc(F)cc1)c1ccc(-c2ccccc2)cc1 (racemic) [Example 20, N-[2-(4-fluorophenyl)-2-hydroxy-1-[[4-(trifluoromethyl)phenyl]methyl]ethyl]-4-phenylbenzamide] | 178 to 185
26 | O=C(N[C@H](Cc1cccc(OC(F)(F)C(F)F)c1)[C@@H](O)c1ccc(CN2CCCCC2)cc1)c1cccc2c1C=CCCC2 (racemic) [Example 327, N-[(1RS,2SR)-2-hydroxy-2-[4-(piperidinomethyl)phenyl]-1-[3-(1,1,2,2-tetrafluoroethoxy)benzyl]ethyl]-6,7-dihydro-5H-benzo[a]cycloheptene-1-carboxamide] | 104 to 106
27 | O=C(CCc1ccccc1)N[C@H](Cc1ccc(C(F)(F)F)cc1)[C@@H](O)c1ccc(Oc2ccccc2)cc1 (racemic) [Example 211, N-((1RS,2SR)-2-hydroxy-2-(4-phenoxyphenyl)-1-((4-(trifluoromethyl)phenyl)methyl)ethyl)-3-phenylpropanamide] | 133 to 134
28 | Cc1ccc(C(=O)N[C@H](Cc2cccc(OC(F)(F)C(F)F)c2)[C@@H](O)c2ccc(F)cc2)c2c1CCCC=C2 (racemic) [Example 318, N-[(1RS,2SR)-2-(4-fluorophenyl)-2-hydroxy-1-[3-(1,1,2,2-tetrafluoroethoxy)benzyl]ethyl]-4-methyl-6,7-dihydro-5H-benzo[a]cycloheptene-1-carboxamide] | 177 to 178
